{
  "source": "patent US9011816B2",
  "about": "“Fibronectin targeting contrast agent” (Case Western Reserve University, priority 2011, dated 2015)",
  "key": {"[1]": {"test_system": "orthotopic 4T1 breast tumor", "experiment": "in vivo T1-weighted MR imaging of orthotopic 4T1 breast tumor in BALB/c mice", "conditions": "BALB/c mice bearing orthotopic 4T1 breast tumor; 0.03 mmol-Gd/kg; T1 weighted axial 2D gradient images; versus non-targeted scrambled CLT1-(DOTA-Gd)4", "description": "A […] breast tumor model was also run. A 4T1 cell line was cultured using ATCC complete growth medium. Female Balb/c mice (4-6 weeks old) were purchased from Jackson Lab. The suspension of 4T1 cells in PBS was mixed with Matrigel matrix at 1:1 ratio. The mixture (2×10^6 cells, 100 μL) was surgically implanted in the mammary pad of a mouse when a mouse was approximately 8-10 weeks old.\nFIG. 2 illustrates T1-weighted axial 2D gradient images of […] breast cancer tumor. Both CLT1-(DOTA-Gd)4 and non-targeted scrambled CLT1-(DOTA-Gd)4 were investigated in […] BALB/c mice bearing orthotopic 4T1 […] breast tumor. […] The images in row (A) of the targeted CLT1-(DOTA-Gd)4. Images in row (A) illustrate a time sequence of the targeted CLT1-(DOTA-Gd)4. Images in row (B) illustrate the time sequence for non-targeted CLT1-(DOTA-Gd)4."}, "[2]": {"test_system": "atherosclerotic ApoE-deficient mice", "experiment": "in vivo MR imaging in atherosclerotic ApoE-deficient mice", "conditions": "images at baseline and in fifteen minute intervals up to sixty minutes after injection, versus scrambled peptides and Magnevist", "description": "An atherosclerotic mice model was run with 12 week old Apoe knockout mice (B6.129P2 Apotem1UNC/J) and control mice (C57BL/J6) were purchased from Jackson Lab. Apoe knockout mice were fed with a high fat diet (60% fat) after arriving and were maintained for 6 months. Control mice were fed with a normal diet (6% fat).\nFIG. 1 illustrates in vivo MR images acquired in atherosclerotic ApoE-deficient mice before and after injection of targeted CLTI-(DOTA-Gd)4 or CREKA-(DOTA-Gd)4 and non-targeted controls. Arrows point to atherosclerotic aorta and insets are enlargements of aorta. The images show a baseline image at zero minutes before an injection of contrast agent. The images progress to injection and in fifteen minute intervals up to sixty minutes. The images illustrate targeted peptides, scrambled peptides, and Magnevist."}, "[3]": {"test_system": "orthotopic human prostate tumor", "experiment": "in vivo MR imaging of orthotopic human prostate tumor in nu/nu nude athymic mice", "conditions": "nu/nu nude athymic mice bearing orthotopic human prostate tumor; 0.03 mmol-Gd/kg; versus non-targeted scrambled CLT1-(DOTA-Gd)4", "description": "In animal tumor models […] athymic nu/nu mice (4-6 weeks old), were purchased from the Animal Resource Center (ARC) of Case Western Reserve Universitey. A suspension of PC3 with GFP cells (PC3-GFP) were harvested and suspended in a sterile phosphate-buffered saline solution. The mixture (5×10^5 cells, 25 μL) was surgically inoculated into the ventral prostate through the dorsal prostate.\nFIG. 3 illustrates an enhancement ratio and a signal to noise ratio of the targeted CLT1-(DOTA-Gd)4 and non-targeted scrambled CLT1-(DOTA-Gd)4. The MRI contrast agents, targeted CLT1-(DOTA-Gd)4 and non-targeted scrambled CLT1-(DOTA-Gd)4 were administer at 0.03 mmol-Gd/kg in nu/nu nude athymic mice (n=4) bearing orthotopic human prostate tumor."}},
  "data": [
    {"substance": "CLT1-PEG-(Lys)3-(DOTA-Gd)4 [CLT1-(DOTA-Gd)4]", "values": [
      {"measurement": "MR contrast enhancement in tumor tissue (FIG. 2)", "setting": "[1]", "result": "greater and longer enhancement in tumor tissue compared to non-targeted scrambled CLT1-(DOTA-Gd)4"},
      {"measurement": "MR contrast enhancement (FIG. 1)", "setting": "[2]", "result": "greater and longer enhancement in tumor tissue compared to non-targeted scrambled peptides and controls"},
      {"measurement": "signal intensity within the tumor tissue (enhancement ratio, signal to noise ratio; FIG. 3)", "setting": "[3]", "result": "greater enhancement than non-target agents"}
    ]}
  ]
}
